Source: PubChem BioAssay AID1918993 (Molecular Pharmacology Branch, DTP, NCI, 2023)
“And” between values parts separate entries of the source, which are not always exact repeats. Equal entries are not always repeated. Values belong to the compound of their own block, whether it stands above or below them.

System: 233499-124-R-J3-PDC complex spheroid growth
Experiment: Anticancer human tumor 233499-124-R-J3-PDC patient-derived colon adenocarcinoma cell line growth inhibition [AhR]
Details: for viability, T/C: stronger effect = lower value
Outline: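 Complex tumor spheroids co-cultured with HUVEC and human MSC stroma; AhR antagonists tested in combination with standard-of-care and investigational agents. Top concentration at or near clinical Cmax (else 10 microM), half-log dilutions; growth expressed as percent test/control.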

[1] = curve of first compound, second compound 0.1 µM
[2] = curve of first compound, second compound 0.316 µM
[3] = curve of first compound, second compound 1 µM
[4] = curve of first compound, second compound 3.16 µM
[5] = curve of first compound, second compound 10 µM
[6] = second compound 0.1 µM, first compound 0.00316 µM
[7] = second compound 0.1 µM, first compound 0.01 µM
[8] = second compound 0.1 µM, first compound 0.0316 µM
[9] = second compound 0.1 µM, first compound 0.1 µM
[10] = second compound 0.1 µM, first compound 0.316 µM
[11] = second compound 0.1 µM, first compound 1 µM
[12] = second compound 0.316 µM, first compound 0.00316 µM
[13] = second compound 0.316 µM, first compound 0.01 µM
[14] = second compound 0.316 µM, first compound 0.0316 µM
[15] = second compound 0.316 µM, first compound 0.1 µM
[16] = second compound 0.316 µM, first compound 0.316 µM
[17] = second compound 0.316 µM, first compound 1 µM
[18] = second compound 1 µM, first compound 0.00316 µM
[19] = second compound 1 µM, first compound 0.01 µM
[20] = second compound 1 µM, first compound 0.0316 µM
[21] = second compound 1 µM, first compound 0.1 µM
[22] = second compound 1 µM, first compound 0.316 µM
[23] = second compound 1 µM, first compound 1 µM
[24] = second compound 3.16 µM, first compound 0.00316 µM
[25] = second compound 3.16 µM, first compound 0.01 µM
[26] = second compound 3.16 µM, first compound 0.0316 µM
[27] = second compound 3.16 µM, first compound 0.1 µM
[28] = second compound 3.16 µM, first compound 0.316 µM
[29] = second compound 3.16 µM, first compound 1 µM
[30] = second compound 10 µM, first compound 0.00316 µM
[31] = second compound 10 µM, first compound 0.01 µM
[32] = second compound 10 µM, first compound 0.0316 µM
[33] = second compound 10 µM, first compound 0.1 µM
[34] = second compound 10 µM, first compound 0.316 µM
[35] = second compound 10 µM, first compound 1 µM
[36] = second compound 0.1 µM, first compound 3.16 µM
[37] = second compound 0.1 µM, first compound 10 µM
[38] = second compound 0.316 µM, first compound 3.16 µM
[39] = second compound 0.316 µM, first compound 10 µM
[40] = second compound 1 µM, first compound 3.16 µM
[41] = second compound 1 µM, first compound 10 µM
[42] = second compound 3.16 µM, first compound 3.16 µM
[43] = second compound 3.16 µM, first compound 10 µM
[44] = second compound 10 µM, first compound 3.16 µM
[45] = second compound 10 µM, first compound 10 µM
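Further: spheroids exposed to agents for seven days before reading.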

Compound: Nc1ncn(C2CC(O)C(CO)O2)c(=O)n1 (stereo not drawn) + Cc1cncc(-c2nc(NCCc3c[nH]c4ccccc34)c3ncn(C(C)C)c3n2)c1
IC50 [1]: > 1000 nM
IC50 [2]: > 1000 nM
IC50 [3]: > 1000 nM
IC50 [4]: > 1000 nM
IC50 [5]: < 3.16 nM
viability, T/C [6]: 97.4%
viability, T/C [7]: 85%
viability, T/C [8]: 91.3%
viability, T/C [9]: 88%
viability, T/C [10]: 87.8%
viability, T/C [11]: 81.2%
viability, T/C [12]: 88.8%
viability, T/C [13]: 89.8%
viability, T/C [14]: 84.6%
viability, T/C [15]: 84%
viability, T/C [16]: 87.4%
viability, T/C [17]: 96.9%
viability, T/C [18]: 82.9%
viability, T/C [19]: 83.9%
viability, T/C [20]: 86.8%
viability, T/C [21]: 81%
viability, T/C [22]: 82.9%
viability, T/C [23]: 93.4%
viability, T/C [24]: 82.7%
viability, T/C [25]: 76.2%
viability, T/C [26]: 82.4%
viability, T/C [27]: 81%
viability, T/C [28]: 76.5%
viability, T/C [29]: 88.6%
viability, T/C [30]: 16.3%
viability, T/C [31]: 26.8%
viability, T/C [32]: 36.8%
viability, T/C [33]: 44.8%
viability, T/C [34]: 21.5%
viability, T/C [35]: 26.4%

Compound: Nc1ccccc1NC(=O)c1ccc(CNC(=O)OCc2cccnc2)cc1 + Cc1cncc(-c2nc(NCCc3c[nH]c4ccccc34)c3ncn(C(C)C)c3n2)c1
IC50 [1]: 4260 nM
IC50 [2]: 2610 nM
IC50 [3]: 1780 nM
IC50 [4]: 1490 nM
IC50 [5]: < 31.6 nM
viability, T/C [8]: 89.4%
viability, T/C [9]: 99.9%
viability, T/C [10]: 92.6%
viability, T/C [11]: 106%
viability, T/C [36]: 65.9%
viability, T/C [37]: 4.68%
viability, T/C [14]: 93.8%
viability, T/C [15]: 90%
viability, T/C [16]: 80.7%
viability, T/C [17]: 109%
viability, T/C [38]: 41.3%
viability, T/C [39]: 2.94%
viability, T/C [20]: 80.4%
viability, T/C [21]: 84.8%
viability, T/C [22]: 71.9%
viability, T/C [23]: 93.9%
viability, T/C [40]: 17.1%
viability, T/C [41]: 1.34%
viability, T/C [26]: 74%
viability, T/C [27]: 77.7%
viability, T/C [28]: 78.6%
viability, T/C [29]: 74.6%
viability, T/C [42]: 4.12%
viability, T/C [43]: 0.26%
viability, T/C [32]: 7.14%
viability, T/C [33]: 7.87%
viability, T/C [34]: 7.4%
viability, T/C [35]: 1.13%
viability, T/C [44]: 0.78%
viability, T/C [45]: 0.29%

Compound: NS(=O)(=O)OCC1CC(n2ccc3c(NC4CCc5ccccc54)ncnc32)CC1O (stereo not drawn) + Cc1ccccc1N=Nc1ccc(NC(=O)c2ccnn2C)c(C)c1
IC50 [1]: 409 nM
IC50 [2]: 442 nM
IC50 [3]: 395 nM
IC50 [4]: 475 nM
IC50 [5]: 637 nM
viability, T/C [8]: 110%
viability, T/C [9]: 113%
viability, T/C [10]: 61.3%
viability, T/C [11]: 10.8%
viability, T/C [36]: 2.55%
viability, T/C [37]: 3.77%
viability, T/C [14]: 125%
viability, T/C [15]: 96.6%
viability, T/C [16]: 68.1%
viability, T/C [17]: 16.6%
viability, T/C [38]: 3.6%
viability, T/C [39]: 2.37%
viability, T/C [20]: 116%
viability, T/C [21]: 103%
viability, T/C [22]: 58.2%
viability, T/C [23]: 15.8%
viability, T/C [40]: 3.88%
viability, T/C [41]: 3.13%
viability, T/C [26]: 115%
viability, T/C [27]: 97.5%
viability, T/C [28]: 70.8%
viability, T/C [29]: 14.6%
viability, T/C [42]: 2.81%
viability, T/C [43]: 3.25%
viability, T/C [32]: 109%
viability, T/C [33]: 108%
viability, T/C [34]: 83.6%
viability, T/C [35]: 28.6%
viability, T/C [44]: 4.02%
viability, T/C [45]: 3.01%

Compound: Nc1ncn(C2CC(O)C(CO)O2)c(=O)n1 (stereo not drawn)
viability, T/C (compound 0.00316 µM): 100% and 95.5% and 94.7%
viability, T/C (compound 0.01 µM): 99.2% and 102% and 92.5%
viability, T/C (compound 0.0316 µM): 89.7% and 85.1% and 97%
viability, T/C (compound 0.1 µM): 94.7% and 85.4% and 97.1%
viability, T/C (compound 0.316 µM): 92.5% and 90.6% and 99.1%
viability, T/C (compound 1 µM): 86.9% and 92.4% and 92.5%
IC50 (curve of compound): > 1000 nM

Now from value to compound, other results behind:

IC50 (curve of compound): > 10000 nM
Compound: COc1cc(C2c3cc4c(cc3C(OC3OC5COC(C)OC5C(O)C3O)C3COC(=O)C23)OCO4)cc(OC)c1O (stereo not drawn)
viability, T/C (compound 0.0316 µM): 101% and 87.7% and 99.6%
viability, T/C (compound 0.1 µM): 92.9% and 95.8% and 106%
viability, T/C (compound 0.316 µM): 98.6% and 95.4% and 95.7%
viability, T/C (compound 1 µM): 109% and 93.1% and 94.7%
viability, T/C (compound 3.16 µM): 91.3% and 92.4% and 110%
viability, T/C (compound 10 µM): 93.3% and 78.6% and 85.6%

IC50 [1]: > 10000 nM
IC50 [2]: > 10000 nM
IC50 [3]: > 10000 nM
IC50 [4]: > 10000 nM
IC50 [5]: > 10000 nM
Compound: CC1COCCN1c1cc(C2(S(C)(=N)=O)CC2)nc(-c2ccnc3[nH]ccc23)n1 (stereo not drawn) + Cc1ccccc1N=Nc1ccc(NC(=O)c2ccnn2C)c(C)c1
viability, T/C [8]: 103%
viability, T/C [9]: 112%
viability, T/C [10]: 91.2%
viability, T/C [11]: 97.8%
viability, T/C [36]: 88.8%
viability, T/C [37]: 91%
viability, T/C [14]: 113%
viability, T/C [15]: 107%
viability, T/C [16]: 94.5%
viability, T/C [17]: 99.7%
viability, T/C [38]: 96.6%
viability, T/C [39]: 85%
viability, T/C [20]: 103%
viability, T/C [21]: 100%
viability, T/C [22]: 104%
viability, T/C [23]: 97.6%
viability, T/C [40]: 77.7%
viability, T/C [41]: 74.2%
viability, T/C [26]: 112%
viability, T/C [27]: 110%
viability, T/C [28]: 105%
viability, T/C [29]: 101%
viability, T/C [42]: 99.7%
viability, T/C [43]: 84.1%
viability, T/C [32]: 108%
viability, T/C [33]: 107%
viability, T/C [34]: 118%
viability, T/C [35]: 106%
viability, T/C [44]: 109%
viability, T/C [45]: 77.8%

IC50 (curve of compound): 632 nM and 486 nM and 266 nM
Compound: NS(=O)(=O)OCC1CC(n2ccc3c(NC4CCc5ccccc54)ncnc32)CC1O (stereo not drawn)
viability, T/C (compound 0.0316 µM): 101% (2×) and 105%
viability, T/C (compound 0.1 µM): 107% and 91.4% and 77.7%
viability, T/C (compound 0.316 µM): 98.2% and 66% and 47.5%
viability, T/C (compound 1 µM): 18.1% and 25.5% and 14%
viability, T/C (compound 3.16 µM): 5.89% and 5.66% and 5.16%
viability, T/C (compound 10 µM): 3% and 4.4% and 2.68%

IC50 [1]: > 100 nM
IC50 [2]: > 100 nM
IC50 [3]: > 100 nM
IC50 [4]: > 100 nM
IC50 [5]: < 0.316 nM
Compound: CC[C@@]1(O)C(=O)OCc2c1cc1n(c2=O)Cc2cc3c(CN(C)C)c(O)ccc3nc2-1 + Cc1cncc(-c2nc(NCCc3c[nH]c4ccccc34)c3ncn(C(C)C)c3n2)c1
viability, T/C (second compound 0.1 µM, first compound 0.000316 µM): 101%
viability, T/C (second compound 0.1 µM, first compound 0.001 µM): 94.2%
viability, T/C [6]: 92.1%
viability, T/C [7]: 94.6%
viability, T/C [8]: 97.6%
viability, T/C [9]: 92.6%
viability, T/C (second compound 0.316 µM, first compound 0.000316 µM): 92.1%
viability, T/C (second compound 0.316 µM, first compound 0.001 µM): 82.3%
viability, T/C [12]: 84.4%
viability, T/C [13]: 78.5%
viability, T/C [14]: 101%
viability, T/C [15]: 69.6%
viability, T/C (second compound 1 µM, first compound 0.000316 µM): 84.1%
viability, T/C (second compound 1 µM, first compound 0.001 µM): 76%
viability, T/C [18]: 77.8%
viability, T/C [19]: 70.3%
viability, T/C [20]: 85.2%
viability, T/C [21]: 68%
viability, T/C (second compound 3.16 µM, first compound 0.000316 µM): 87.8%
viability, T/C (second compound 3.16 µM, first compound 0.001 µM): 71.5%
viability, T/C [24]: 91%
viability, T/C [25]: 88.6%
viability, T/C [26]: 83.3%
viability, T/C [27]: 63.2%
viability, T/C (second compound 10 µM, first compound 0.000316 µM): 8.54%
viability, T/C (second compound 10 µM, first compound 0.001 µM): 8.37%
viability, T/C [30]: 34.9%
viability, T/C [31]: 24%
viability, T/C [32]: 12.9%
viability, T/C [33]: 16.9%

IC50 (curve of compound): > 3000 nM
Compound: CCN(c1cc(-c2ccc(CN3CCOCC3)cc2)cc(C(=O)NCc2c(C)cc(C)[nH]c2=O)c1C)C1CCOCC1
viability, T/C (compound 0.00949 µM): 92.4% and 97.3% and 86.5%
viability, T/C (compound 0.03 µM): 107% and 97% and 98%
viability, T/C (compound 0.0949 µM): 96.5% and 90.3% and 94.9%
viability, T/C (compound 0.3 µM): 103% and 96.3% and 91.4%
viability, T/C (compound 0.949 µM): 102% and 109% and 100%
viability, T/C (compound 3 µM): 106% and 97.9% and 96.6%
